From US20120315303A1, “METHODS AND INTRAVASCULAR TREATMENT DEVICES USING PACLITAXEL FOR TREATMENT OF ATHEROSCLEROSIS” (Medtronic Vascular, Inc., priority 2011, published 2012) come the findings set out here.

What all share (type): cell-based
One assay has as its system CDKN1A. In words: qRT-PCR CDKN1A gene expression in drug-treated SFA smooth muscle cells. Conditions: SFA smooth muscle cells from normal donor tissue; qRT-PCR calibrated against unstimulated control; FIG. 13A. On the procedure: (§1) FIG. 13 depicts effects of paclitaxel on cellular morphology, gene and protein expression. (A and B) SFA smooth muscle cells from normal donor tissue were treated with Paclitaxel, Everolimus or Sirolimus. Gene expression levels were determined by qRT-PCR for each drug arm calibrated against unstimulated control for (A) CDKN1A and (C) CTGF. (B) SMCs were exposed to Sirolimus or Paclitaxel, fixed and stained with Actin (red) and Ki67 (green). (D) SFA derived smooth muscle cells were treated with Paclitaxel, Everolimus or Sirolimus then stimulated with Colchicinne (CTGF a) or Angiotensin II (CTGF b). Protein levels were detected by western blot using antibodies against CTGF and beta actin. One representative blot of three replicates shown.
(§2) Obtaining samples from SFA arteries allowed us to generate SFA derived-smooth muscle cells and to examine the expression of genes of interest as ide12tified in the disease atherectomy samples. In particularly we investigated the transcriptional response to anti-proliferative drugs, e.g. paclitaxel and drugs from the limus family such as sirolimus, everolimus or zotarolimus. These drugs are currently employed in combination devices indicated for the treatment of coronary and peripheral disease, including drug eluting stents and drug eluting balloons. […]

A further assay concerns SFA smooth muscle cells. In words: Actin and Ki67 staining of drug-exposed SMCs (cellular morphology). Conditions: SMCs fixed and stained with Actin and Ki67; FIG. 13B. On the procedure: as §1, §2
The test system of assay [1] is CTGF. In words: qRT-PCR CTGF gene expression in drug-treated SFA smooth muscle cells. Conditions: qRT-PCR calibrated against unstimulated control, FIG. 13C. On the procedure:
as §1, §2

Assay [2] deals with CTGF. In words: Western blot of CTGF protein in drug-treated SFA derived smooth muscle cells. Conditions: SFA derived smooth muscle cells stimulated with Colchicinne or Angiotensin II, FIG. 13D. On the procedure: as §1, §2
The next assay concerns BTG2. In words: qRT-PCR BTG2 expression in drug-treated, inflammatory cocktail stimulated SFA smooth muscle cells. Conditions: quiescent SFA smooth muscle cells stimulated with FBS, TGF Beta and IL1beta, FIG. 14A. On the procedure:
(§3) FIG. 14 depicts differential effect of paclitaxel versus the Limus family of drugs on expression of cell cycle, proliferation and ECM target genes in SFA smooth muscle cells. Quiescent SFA smooth muscle cells were treated with of Paclitaxel, Zotarolimus or Sirolimus then stimulated with inflammatory cocktail consisting of FBS, TGF Beta and IL1beta. Relative gene expression levels were determined by qRT-PCR for each drug treated arm as calibrated against the unstimulated baseline control for (A) BTG2, (B) KLF4, (C) PEDF, (D) Endothelin-1, (E) Thrombospondin-1, and (F) Thrombospondin-3.
(§4) Since the limus drugs have been known to affect the signaling via their effect on cell cycle inhibitors (CDKN1A and CDKN1B), we next studied their effects on the pertinent proliferative disease targets identified in this study. Specifically, we looked at BTG2, KLF4 and PEDF (FIGS. 14A, 14B, and 14C, respectively). […] The limus drugs, sirolimus and zotarolimus induced the expression of BTG2, KLF4 cell cycle inhibitors, but not of the proliferation PEDF inhibitor, which are previously unknown actions for these drugs.

The subject of a further assay is KLF4. In words: qRT-PCR KLF4 expression in drug-treated, inflammatory cocktail stimulated SFA smooth muscle cells. Conditions: quiescent SFA smooth muscle cells stimulated with FBS, TGF Beta and IL1beta, FIG. 14B. On the procedure:
as §3, §4

Another assay concerns PEDF. In words: qRT-PCR PEDF expression in drug-treated, inflammatory cocktail stimulated SFA smooth muscle cells. Conditions: quiescent SFA smooth muscle cells stimulated with FBS, TGF Beta and IL1beta, FIG. 14C. On the procedure: as §3, §4
In the next assay the test system is Endothelin-1. In words: qRT-PCR Endothelin-1 expression in drug-treated, inflammatory cocktail stimulated SFA smooth muscle cells. Conditions: quiescent SFA smooth muscle cells stimulated with FBS, TGF Beta and IL1beta, FIG. 14D. On the procedure:
as §3
(§5) In a similar manner, the expression of Thrombospondin-1 and Thrombospondin-3 is inhibited by paciltaxel but not by sirolimus and zotarolimus. Taken together the data with regards to the differential effects of commercially employed, anti-proliferative drugs, such as paciltaxel and drugs of the limus family, on the expression of SFA disease target genes can highlight/point to wards the most beneficial therapeutic mode of application and treatment.

The subject of a further assay is Thrombospondin-1. In words: qRT-PCR Thrombospondin-1 expression in drug-treated, inflammatory cocktail stimulated SFA smooth muscle cells. Conditions: quiescent SFA smooth muscle cells stimulated with FBS, TGF Beta and IL1beta, FIG. 14E. On the procedure: as §3, §5
Another assay relates to Thrombospondin-3. In words: qRT-PCR Thrombospondin-3 expression in drug-treated, inflammatory cocktail stimulated SFA smooth muscle cells. Conditions: quiescent SFA smooth muscle cells stimulated with FBS, TGF Beta and IL1beta, FIG. 14F. On the procedure: as §3, §5
For another assay, the system named is Cathepsin S. In words: In vitro Cathepsin S expression.

In the case of `CC(=O)O[C@H]1C(=O)[C@@]2(C)[C@H]([C@H](OC(=O)c3ccccc3)[C@]3(O)C[C@H](OC(=O)[C@H](O)[C@@H](NC(=O)c4ccccc4)c4ccccc4)C(C)=C1C3(C)C)[C@]1(OC(C)=O)CO[C@@H]1C[C@@H]2O` (relative stereo) [Paclitaxel, (1S,2S,3R,4S,7R,9S,10S,12R,15S)-4,12-Diacetoxy-15-{[(2R,3S)-3-(benzoylamino)-2-hydroxy-3-phenylpropanoyl]oxy}-1,9-dihydroxy-10,14,17,17-tetramethyl-11-oxo-6-oxatetracyclo[11.3.1.0˜3, 10˜.0˜4,7˜]heptadec-13-en-2-yl rel-benzoate], the CDKN1A gene expression entry in the assay on CDKN1A was “does not affect”. The “effect on cellular cytoskeleton / morphology” value in the assay on SFA smooth muscle cells is listed as “disrupting cellular cytoskeleton”. The CTGF gene expression result with CTGF [1] is recorded as “substantial down regulation”; in the assay with CTGF [1] (listed as paclitexel), “substantially down regulated”. Further, the CTGF protein levels result in the assay with CTGF [2] is “reduced”. Further, in the assay on BTG2, the BTG2 gene expression result is reported as “up regulated”. The KLF4 gene expression entry in the assay on KLF4 is listed as “up regulated”. Moreover, the PEDF gene expression result with PEDF was “up regulated”. Moreover, the Endothelin-1 gene expression entry in the assay on Endothelin-1 (listed as paciltaxel) is recorded as “slightly inhibited”; in the assay with Endothelin-1 (listed as paclitexel), “substantially down regulated”. For the same compound, the values for the Thrombospondin-1 gene expression entry in the assay on Thrombospondin-1 (listed as paciltaxel) and with Thrombospondin-1 (listed as paclitexel) were “inhibited” and “substantially down regulated”, respectively. Further, the Thrombospondin-3 gene expression result with Thrombospondin-3 (listed as paciltaxel) is reported as “inhibited”; with Thrombospondin-3 (listed as paclitexel), “substantially down regulated”. Further, in the assay with Cathepsin S, the “Cathepsin S expression” value was “induces”.

`CO[C@H]1C[C@@H]2CC[C@@H](C)[C@@](O)(O2)C(=O)C(=O)N2CCCC[C@H]2C(=O)O[C@H]([C@H](C)C[C@@H]2CC[C@@H](OCCO)[C@H](OC)C2)CC(=O)[C@H](C)/C=C(\C)[C@@H](O)[C@@H](OC)C(=O)[C@H](C)C[C@H](C)/C=C/C=C/C=C/1C` [everolimus]: the CDKN1A gene expression result in the assay with CDKN1A is “up regulating”.

`CO[C@H]1C[C@@H]2CC[C@@H](C)[C@@](O)(O2)C(=O)C(=O)N2CCCC[C@H]2C(=O)O[C@H]([C@H](C)C[C@@H]2CC[C@H](n3cnnn3)[C@H](OC)C2)CC(=O)[C@H](C)/C=C(\C)[C@@H](O)[C@@H](OC)C(=O)[C@H](C)C[C@H](C)/C=C/C=C/C=C/1C` [zotarolimus]: in the assay on BTG2, the BTG2 gene expression result was “induced”. Further, in the assay on KLF4, the KLF4 gene expression result is “induced”. Further, the Endothelin-1 gene expression result in the assay on Endothelin-1 is given as “substantially upregulated”.
